Assay results published in patent publication US20230147795A1, “COMPOSITION AND METHODS FOR PREVENTING RADIATION INJURY AND PROMOTING TISSUE REGENERATION” (FIRSTSTRING RESEARCH, INC., priority 2017, published 2023).
Residues, ends and D or L forms follow the SMILES beside them. *: point of attachment. Biotin = O=C1N[C@H]2[C@H](CS[C@H]2CCCCC(=O)*)N1; Ahx = NCCCCCC(=O)O

Tests used:
[1] = Stability study of ACT peptide in drug product gel; assay type: physicochemical; settings: for ACT peptide remaining, % of the label claim (initial concentration): drug product with 1.25% hydroxyethylcellulose
Protocol: Derived through in vitro and in vivo studies, these stabilizers and excipients are incorporated into the drug product since they are non-irritating, non-staining, and non-immunogenic. […] The ACT peptide within the drug product containing 1.25% hydroxyethylcellulose only dropped to 98% of the label claim (i.e., initial concentration) when stored at 5° C. for three months and to 84% of the label claim when stored at 25° C. for the same duration. In one aspect of the invention, edetate disodium (EDTA) and Mannitol are incorporated within the drug product to provide stability to the ACT1 peptide. In some embodiments of the invention, the Mannitol is present in the formulation at 0.01% (w/w) to 1.6% (w/w), 0.01% (w/w) to 1.5% (w/w), 0.01% (w/w) to 1.4% (w/w), 0.01% (w/w) to 1.3% (w/w), 0.01% (w/w) to 1.2% (w/w), 0.01% (w/w) to 1.1% (w/w), 0.01% (w/w) to 1.0% (w/w), 0.01% (w/w) to 0.9% (w/w), 0.01% (w/w) to 0.8% (w/w), 0.01% (w/w) to 0.7% (w/w), 0.01% (w/w) to 0.6% (w/w), 0.01% (w/w) to 0.5% (w/w), 0.01% (w/w) to 0.4% (w/w), 0.01% (w/w) to 0.3% (w/w), 0.01% (w/w) to 0.2% (w/w), 0.01% (w/w) to 0.1% (w/w), or 0.01% (w/w) to 0.0.05% (w/w). In specific embodiments, the Mannitol is present in the formulation at about 0.05% (w/w).

[2] = test system: C57BL/6 mice, partial body irradiation; experiment: GI-targeted murine partial body irradiation model, survival; assay type: in vivo, mouse; settings: 10 mg/kg intraperitoneally daily from 24 hrs post exposure up to 21 days, preliminary
Excerpt: In this study, C557BL/6 mice (n=40; 20 females and 20 males) were exposed to partial body irradiation by one dose exposure of […] at 50cGy/min using a 60 Co gamma source. A Farmer ionization chamber was used to provide real-time quantification of the radiation dose. Animals were irradiated in a custom designed restrainer where their left pelvic limb was extended and maintained in position to permit shielding with a cerrobend structure. This method of shielding 5% of bone marrow serves to rescue mice from hematopoietic syndromel. Initiating 24 hrs post exposure, animals were treated daily with 0.9% sodium chloride (vehicle) or 10 mg/kg ACTT 1 (ACT1 polypeptide) delivered intraperitoneally for up to 21 days. Half of the animals (subtracting those that died on days 1-7) were euthanized on day 8 to allow for histological examination of GI organs (histology results pending).

Molecule | ACT peptide remaining, % of the label claim (initial concentration) ([1]; stored at 5° C. for three months) [%] | ACT peptide remaining, % of the label claim (initial concentration) ([1]; stored at 25° C. for three months) [%] | Stability in Hydroxyethylcellulose, 250 HHX (1.25%) compared to Pluronic gels ([1]; gelling agent comparison) | Survival / early mortality (Kaplan Maier analysis) compared to saline [2] | Survival / early mortality (Kaplan Maier analysis) compared to saline ([2]; listed as ACTI polypeptide)
CC[C@H](C)[C@H](NC(=O)[C@H](CCC(=O)O)NC(=O)[C@H](CC(C)C)NC(=O)[C@H](CC(=O)O)NC(=O)[C@H](CC(=O)O)NC(=O)[C@@H]1CCCN1C(=O)[C@H](CCCNC(=N)N)NC(=O)[C@@H]1CCCN1C(=O)[C@H](CCCNC(=N)N)NC(=O)[C@H](CCCCN)NC(=O)[C@H](CCCCN)NC(=O)[C@H](Cc1c[nH]c2ccccc12)NC(=O)[C@@H]1CCCN1C(=O)[C@H](CCCCN)NC(=O)[C@H](CCCNC(=N)N)NC(=O)[C@H](CCCNC(=N)N)NC(=O)[C@H](CC(N)=O)NC(=O)[C@@H]1CCCN1C(=O)[C@H](Cc1ccccc1)NC(=O)[C@H](Cc1c[nH]c2ccccc12)NC(=O)[C@@H](NC(=O)[C@H](CCCCN)NC(=O)[C@@H]1CCCN1C(=O)[C@H](CCC(N)=O)NC(=O)[C@H](CCCNC(=N)N)NC(=O)CCCCCNC(=O)CCCC[C@@H]1SC[C@@H]2NC(=O)N[C@@H]21)[C@@H](C)CC)C(=O)O [Peptide 328967] ({Biotin-Ahx}-RQPKIWFPNRRKPWKKRPRPDDLEI-OH) | 98 | 84 | more stable | – | –
RPRPDDLEI [ACT1 polypeptide] | – | – | – | has an early effect on animal mortality | increased survival
